Assay results: ChEMBL document CHEMBL5465560, “Selectivity Literature for EUbOPEN Chemogenomic Library” (2024)
One block for each molecule: values may come before it.

Experiments:
[1] = molecular target: Cyclin-dependent kinase 7 (Homo sapiens, UniProt P50613); assay: Selectivity interaction (KinomeScan (DiscoverX)) EUB0000666a CDK7; conditions: at 10 µM
[2] = molecular target: Cyclin-dependent kinase 11B (Homo sapiens) (UniProt P21127); assay: Selectivity interaction (KinomeScan (DiscoverX)) EUB0000666a CDK11B; conditions: at 10 µM
[3] = molecular target: Platelet-derived growth factor receptor alpha (Homo sapiens, UniProt P16234); assay: Selectivity interaction (Upstate Kinase Profiler service (Millipore)) EUB0000056c PDGFRA; conditions: at 1 µM
[4] = molecular target: T1, Myosin light chain kinase (Homo sapiens) (UniProt Q32MK0); assay: Selectivity interaction (ProQinase) EUB0000171b MYLK3
T1 sequence (whole entry): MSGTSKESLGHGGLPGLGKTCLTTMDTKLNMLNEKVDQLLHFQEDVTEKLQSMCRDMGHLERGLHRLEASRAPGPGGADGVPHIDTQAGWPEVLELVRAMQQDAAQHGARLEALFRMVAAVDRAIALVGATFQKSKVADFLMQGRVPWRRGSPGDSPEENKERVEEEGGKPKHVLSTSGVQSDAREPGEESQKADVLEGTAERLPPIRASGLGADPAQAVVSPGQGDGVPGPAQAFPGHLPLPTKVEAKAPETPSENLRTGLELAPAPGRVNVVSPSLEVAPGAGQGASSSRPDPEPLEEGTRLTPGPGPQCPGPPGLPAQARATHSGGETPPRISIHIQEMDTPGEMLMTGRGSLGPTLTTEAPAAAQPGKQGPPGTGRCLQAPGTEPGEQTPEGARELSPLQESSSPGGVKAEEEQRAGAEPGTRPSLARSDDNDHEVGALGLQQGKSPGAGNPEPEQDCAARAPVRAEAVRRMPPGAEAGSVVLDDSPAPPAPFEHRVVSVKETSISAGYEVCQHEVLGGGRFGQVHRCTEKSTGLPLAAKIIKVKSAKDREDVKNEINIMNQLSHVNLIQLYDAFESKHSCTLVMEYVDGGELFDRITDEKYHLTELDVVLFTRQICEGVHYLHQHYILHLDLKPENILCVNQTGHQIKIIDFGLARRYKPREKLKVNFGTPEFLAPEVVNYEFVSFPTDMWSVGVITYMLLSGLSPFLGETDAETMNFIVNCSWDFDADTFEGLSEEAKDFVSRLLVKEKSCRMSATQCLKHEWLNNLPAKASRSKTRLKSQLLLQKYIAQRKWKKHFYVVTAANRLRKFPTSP

[5] = molecular target: T2, Protein arginine N-methyltransferase 9 (Homo sapiens) (UniProt Q6P2P2); assay: Selectivity interaction (Methyltransferase screen (radiometric assays, panel of 8 PRMTs, 21 protein lysine methyltransferases, 3 DNA methyltransferases, and one RNA methyltransferase)) EUB0000271b PRMT9
T2 sequence (whole entry): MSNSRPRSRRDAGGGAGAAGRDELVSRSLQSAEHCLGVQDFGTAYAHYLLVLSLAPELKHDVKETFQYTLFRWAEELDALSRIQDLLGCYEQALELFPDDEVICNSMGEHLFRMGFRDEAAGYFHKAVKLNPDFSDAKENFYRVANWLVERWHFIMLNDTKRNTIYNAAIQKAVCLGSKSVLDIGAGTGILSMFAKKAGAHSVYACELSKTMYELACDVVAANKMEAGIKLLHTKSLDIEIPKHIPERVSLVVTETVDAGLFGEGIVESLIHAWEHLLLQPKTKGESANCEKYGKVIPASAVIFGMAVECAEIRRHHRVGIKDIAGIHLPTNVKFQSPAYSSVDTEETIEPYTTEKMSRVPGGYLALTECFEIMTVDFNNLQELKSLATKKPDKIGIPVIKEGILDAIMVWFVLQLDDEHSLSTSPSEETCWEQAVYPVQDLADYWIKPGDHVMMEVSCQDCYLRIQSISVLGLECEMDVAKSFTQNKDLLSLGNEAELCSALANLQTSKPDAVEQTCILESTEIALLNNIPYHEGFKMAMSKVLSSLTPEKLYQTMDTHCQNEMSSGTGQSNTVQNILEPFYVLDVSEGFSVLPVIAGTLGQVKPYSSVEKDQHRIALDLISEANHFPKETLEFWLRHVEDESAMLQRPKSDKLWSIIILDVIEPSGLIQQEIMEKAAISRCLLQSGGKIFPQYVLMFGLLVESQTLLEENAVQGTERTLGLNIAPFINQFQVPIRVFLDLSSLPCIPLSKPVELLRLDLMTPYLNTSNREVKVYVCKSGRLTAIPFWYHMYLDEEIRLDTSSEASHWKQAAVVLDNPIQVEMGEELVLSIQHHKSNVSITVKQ

[6] = molecular target: MAP kinase-activated protein kinase 2 (Homo sapiens, UniProt P49137); assay: Selectivity interaction (KinomeScan (DiscoverX)) EUB0001049a MAPKAPK2; conditions: at 1 µM
[7] = molecular target: Protein-tyrosine kinase 2-beta (Homo sapiens) (UniProt Q14289); assay: Selectivity interaction (Ambit KINOMEscan and KiNATiv profiling in Jurkat cells) EUB0000090b PTK2B; type: cell-based; conditions: at 1 µM
[8] = molecular target: MAP kinase-interacting serine/threonine-protein kinase 2 (Homo sapiens, UniProt Q9HBH9); assay: Selectivity interaction (Ambit KINOMEscan and KiNATiv profiling in Jurkat cells) EUB0000090b MKNK2; type: cell-based; conditions: at 1 µM
[9] = molecular target: Ribosomal protein S6 kinase beta-1 (Homo sapiens, UniProt P23443); assay: Selectivity interaction (KinomeScan (DiscoverX)) EUB0001079a RPS6KB1; conditions: at 1 µM
[10] = molecular target: Receptor tyrosine-protein kinase erbB-3 (Homo sapiens) (UniProt P21860); assay: Selectivity interaction (KinomeScan (DiscoverX)) EUB0001079a ERBB3; conditions: at 1 µM
[11] = molecular target: Casein kinase I isoform delta (Homo sapiens, UniProt P48730); assay: Selectivity interaction (KinomeScan (DiscoverX)) EUB0001079a CSNK1D; conditions: at 1 µM
[12] = molecular target: Angiopoietin-1 receptor (Homo sapiens) (UniProt Q02763); assay: Selectivity interaction (KinomeScan (DiscoverX)) EUB0000229b TEK; conditions: at 10 µM
[13] = molecular target: Serine/threonine-protein kinase 10 (Homo sapiens) (UniProt O94804); conditions: at 10 µM
Chain of Serine/threonine-protein kinase 10 (Homo sapiens) (O94804 whole entry, looked up): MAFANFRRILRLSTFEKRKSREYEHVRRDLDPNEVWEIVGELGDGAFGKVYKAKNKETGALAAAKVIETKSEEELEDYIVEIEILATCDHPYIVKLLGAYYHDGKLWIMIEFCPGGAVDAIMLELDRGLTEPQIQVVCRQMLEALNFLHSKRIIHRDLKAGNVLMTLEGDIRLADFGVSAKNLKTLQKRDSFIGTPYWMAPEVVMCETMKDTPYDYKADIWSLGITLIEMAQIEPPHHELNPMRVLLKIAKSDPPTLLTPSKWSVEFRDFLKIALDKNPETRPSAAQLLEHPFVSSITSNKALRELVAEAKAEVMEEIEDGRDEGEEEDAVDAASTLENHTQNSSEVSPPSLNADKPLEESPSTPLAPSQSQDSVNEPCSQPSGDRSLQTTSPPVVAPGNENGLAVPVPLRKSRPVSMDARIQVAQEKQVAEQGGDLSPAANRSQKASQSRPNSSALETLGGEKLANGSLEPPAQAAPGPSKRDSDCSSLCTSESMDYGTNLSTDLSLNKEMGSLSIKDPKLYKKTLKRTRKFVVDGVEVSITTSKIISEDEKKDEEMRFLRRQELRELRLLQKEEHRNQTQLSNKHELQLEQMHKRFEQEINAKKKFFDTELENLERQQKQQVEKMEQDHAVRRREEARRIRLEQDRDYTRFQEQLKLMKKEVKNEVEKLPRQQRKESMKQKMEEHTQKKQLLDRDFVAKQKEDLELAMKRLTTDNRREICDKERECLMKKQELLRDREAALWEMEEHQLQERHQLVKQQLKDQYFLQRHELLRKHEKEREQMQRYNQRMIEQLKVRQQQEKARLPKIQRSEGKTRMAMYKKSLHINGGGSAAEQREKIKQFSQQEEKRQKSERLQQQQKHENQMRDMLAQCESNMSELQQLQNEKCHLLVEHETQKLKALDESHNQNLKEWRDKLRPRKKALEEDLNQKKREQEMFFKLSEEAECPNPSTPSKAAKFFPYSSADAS

Chain of Cyclin-dependent kinase 11B (Homo sapiens) (P21127 whole entry): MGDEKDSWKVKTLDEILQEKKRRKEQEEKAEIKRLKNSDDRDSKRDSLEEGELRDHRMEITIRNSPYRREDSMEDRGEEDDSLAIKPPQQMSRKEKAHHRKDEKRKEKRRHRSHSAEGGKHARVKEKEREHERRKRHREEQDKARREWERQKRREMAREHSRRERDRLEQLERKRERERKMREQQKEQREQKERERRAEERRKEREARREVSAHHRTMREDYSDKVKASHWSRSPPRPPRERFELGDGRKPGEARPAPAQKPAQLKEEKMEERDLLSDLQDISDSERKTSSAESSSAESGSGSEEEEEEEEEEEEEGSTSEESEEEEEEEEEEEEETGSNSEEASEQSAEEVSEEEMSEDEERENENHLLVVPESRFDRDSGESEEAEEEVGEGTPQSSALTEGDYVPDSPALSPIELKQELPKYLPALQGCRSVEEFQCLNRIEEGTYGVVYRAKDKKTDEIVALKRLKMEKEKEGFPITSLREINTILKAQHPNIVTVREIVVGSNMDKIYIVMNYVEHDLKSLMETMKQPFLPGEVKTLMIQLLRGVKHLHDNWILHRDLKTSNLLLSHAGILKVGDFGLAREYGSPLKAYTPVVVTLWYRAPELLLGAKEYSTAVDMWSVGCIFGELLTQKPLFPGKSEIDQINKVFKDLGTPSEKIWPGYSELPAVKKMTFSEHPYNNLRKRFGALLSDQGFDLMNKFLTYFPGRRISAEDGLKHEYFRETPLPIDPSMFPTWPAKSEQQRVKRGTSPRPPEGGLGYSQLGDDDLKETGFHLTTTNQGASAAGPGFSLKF
Chain of MAP kinase-interacting serine/threonine-protein kinase 2 (Q9HBH9 whole entry, looked up): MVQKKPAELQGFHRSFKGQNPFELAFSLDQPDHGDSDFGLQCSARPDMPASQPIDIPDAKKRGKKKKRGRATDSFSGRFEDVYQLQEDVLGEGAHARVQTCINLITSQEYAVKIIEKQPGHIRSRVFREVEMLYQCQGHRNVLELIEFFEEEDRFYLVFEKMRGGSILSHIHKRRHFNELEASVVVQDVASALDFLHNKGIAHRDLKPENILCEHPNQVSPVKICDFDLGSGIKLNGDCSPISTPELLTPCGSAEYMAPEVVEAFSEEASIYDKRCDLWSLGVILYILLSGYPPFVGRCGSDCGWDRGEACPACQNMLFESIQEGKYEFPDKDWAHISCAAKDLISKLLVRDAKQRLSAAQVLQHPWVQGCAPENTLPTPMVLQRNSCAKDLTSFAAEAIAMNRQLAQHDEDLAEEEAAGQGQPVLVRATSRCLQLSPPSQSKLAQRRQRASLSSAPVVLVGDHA
Chain of Platelet-derived growth factor receptor alpha (P16234 whole entry): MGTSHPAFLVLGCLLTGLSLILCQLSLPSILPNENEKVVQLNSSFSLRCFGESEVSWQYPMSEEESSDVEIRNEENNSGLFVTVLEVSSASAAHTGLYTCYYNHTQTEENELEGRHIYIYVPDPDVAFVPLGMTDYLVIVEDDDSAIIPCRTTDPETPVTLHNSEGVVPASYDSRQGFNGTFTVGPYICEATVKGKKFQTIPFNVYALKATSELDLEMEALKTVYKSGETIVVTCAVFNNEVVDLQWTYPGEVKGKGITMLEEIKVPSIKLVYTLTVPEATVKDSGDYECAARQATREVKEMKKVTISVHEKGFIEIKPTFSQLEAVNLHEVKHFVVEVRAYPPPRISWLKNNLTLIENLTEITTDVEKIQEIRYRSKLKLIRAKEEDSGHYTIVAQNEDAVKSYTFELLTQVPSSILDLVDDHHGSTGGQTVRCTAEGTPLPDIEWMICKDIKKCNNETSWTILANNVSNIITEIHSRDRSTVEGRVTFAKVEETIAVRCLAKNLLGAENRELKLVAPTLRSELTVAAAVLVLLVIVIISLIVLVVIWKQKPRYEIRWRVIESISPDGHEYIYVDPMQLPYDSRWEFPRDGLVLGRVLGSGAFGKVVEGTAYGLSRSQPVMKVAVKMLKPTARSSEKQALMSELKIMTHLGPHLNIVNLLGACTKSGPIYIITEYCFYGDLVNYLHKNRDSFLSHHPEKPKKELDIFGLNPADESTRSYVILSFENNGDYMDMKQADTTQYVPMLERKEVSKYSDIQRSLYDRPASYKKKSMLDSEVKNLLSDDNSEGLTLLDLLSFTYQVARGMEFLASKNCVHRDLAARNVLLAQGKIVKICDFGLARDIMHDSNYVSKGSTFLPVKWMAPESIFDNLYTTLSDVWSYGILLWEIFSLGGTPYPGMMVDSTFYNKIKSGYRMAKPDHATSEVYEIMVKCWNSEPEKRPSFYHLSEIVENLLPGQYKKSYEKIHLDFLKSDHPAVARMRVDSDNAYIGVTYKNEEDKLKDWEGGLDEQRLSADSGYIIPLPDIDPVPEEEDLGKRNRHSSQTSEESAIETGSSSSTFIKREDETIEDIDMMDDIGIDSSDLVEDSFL
Chain of Protein-tyrosine kinase 2-beta (Homo sapiens) (Q14289 whole entry, looked up): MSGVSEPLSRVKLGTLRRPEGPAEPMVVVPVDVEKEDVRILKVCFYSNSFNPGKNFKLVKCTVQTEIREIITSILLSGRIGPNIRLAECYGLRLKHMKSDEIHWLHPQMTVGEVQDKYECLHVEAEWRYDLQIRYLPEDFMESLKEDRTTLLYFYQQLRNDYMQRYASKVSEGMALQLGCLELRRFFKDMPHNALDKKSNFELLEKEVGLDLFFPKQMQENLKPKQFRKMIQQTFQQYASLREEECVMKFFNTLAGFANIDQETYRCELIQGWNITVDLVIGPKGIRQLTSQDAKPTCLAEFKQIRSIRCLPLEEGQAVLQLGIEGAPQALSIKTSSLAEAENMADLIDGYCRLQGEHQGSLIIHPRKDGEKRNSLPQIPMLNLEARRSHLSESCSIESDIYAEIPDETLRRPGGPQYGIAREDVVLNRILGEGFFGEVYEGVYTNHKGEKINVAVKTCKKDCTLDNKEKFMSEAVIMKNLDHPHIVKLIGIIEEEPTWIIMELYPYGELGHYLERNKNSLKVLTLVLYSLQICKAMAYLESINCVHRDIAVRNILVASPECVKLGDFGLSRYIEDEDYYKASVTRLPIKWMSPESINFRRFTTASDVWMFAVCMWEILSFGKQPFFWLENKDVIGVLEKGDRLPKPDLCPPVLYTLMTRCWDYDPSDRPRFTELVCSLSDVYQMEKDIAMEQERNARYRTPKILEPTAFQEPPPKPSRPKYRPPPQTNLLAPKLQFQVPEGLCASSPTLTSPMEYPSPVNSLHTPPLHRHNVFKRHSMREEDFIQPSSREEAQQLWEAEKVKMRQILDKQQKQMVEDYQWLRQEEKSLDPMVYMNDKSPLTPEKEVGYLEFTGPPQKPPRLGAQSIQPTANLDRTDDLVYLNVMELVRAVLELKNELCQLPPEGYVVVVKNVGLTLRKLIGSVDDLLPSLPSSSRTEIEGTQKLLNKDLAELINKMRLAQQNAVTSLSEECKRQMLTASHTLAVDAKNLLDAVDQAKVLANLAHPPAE
Chain of Casein kinase I isoform delta (P48730 whole entry, looked up, canonical isoform): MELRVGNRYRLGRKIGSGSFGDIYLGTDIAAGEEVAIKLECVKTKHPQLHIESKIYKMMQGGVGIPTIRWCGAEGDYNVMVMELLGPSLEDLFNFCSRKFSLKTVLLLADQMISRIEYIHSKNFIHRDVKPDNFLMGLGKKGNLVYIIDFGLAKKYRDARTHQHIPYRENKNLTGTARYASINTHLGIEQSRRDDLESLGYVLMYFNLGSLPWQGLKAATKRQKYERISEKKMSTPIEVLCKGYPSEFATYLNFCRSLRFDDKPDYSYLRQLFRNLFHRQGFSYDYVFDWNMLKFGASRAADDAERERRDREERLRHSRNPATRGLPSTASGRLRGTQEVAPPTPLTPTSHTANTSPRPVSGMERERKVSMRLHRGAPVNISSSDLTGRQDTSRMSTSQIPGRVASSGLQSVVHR

Compound: O=C(NOC[C@H](O)CO)c1ccc(F)c(F)c1Nc1ccc(I)cc1F
% of control [1]: 83%
% of control [2]: 97%

% of inhibition [3]: -24%
Compound: Cc1ccc(-c2ccc3c(ccc4sc5c(c43)NC[C@@H](C)NC5=O)n2)cn1

% of control ([4]; at 1 µM): 89%
% of control ([4]; at 5 µM): 68%
Compound: C=CC(=O)Nc1cccc(C(=O)Nc2ccc(Nc3cc(-c4[nH]c(SC)nc4C)ccn3)cc2)c1

Compound: Cc1cc(C)cc([C@@H]2c3cc(C)ccc3NC(=O)CN2C(=O)c2ccc(Br)s2)c1
% of activity ([5]; at 1 µM): 102%
% of activity ([5]; at 10 µM): 103%

Compound: COc1cc(Nc2nc(C)cc(-c3cnn4nc(OC)ccc34)n2)cc(C(F)(F)F)c1
% of control [6]: 52%

Compound: CN(C)C/C=C/C(=O)Nc1ccc(C(=O)N2CCCC(Nc3ncc(Cl)c(-c4c[nH]c5ccccc45)n3)C2)cc1 (stereo not given)
% of control [7]: 93%
% of control [8]: 88%

Compound: Nc1cnc(N2CCc3cc(S(=O)(=O)Nc4c(F)cc(Cl)cc4F)cc(N4CCCC4=O)c32)nc1 [TP-020n]
% of control [9]: 83%
% of control [10]: 100%
% of control [11]: 98%

Compound: COc1cc(N(C)c2ccnc3ccc(C(F)(F)F)cc23)cc(OC)c1OC
% binding [12]: 72%

Compound: Cc1cc([C@@H](C)Nc2ccccc2C(=O)O)c2nc(N3CCOCC3)cc(=O)n2c1 [AZD-6482]
% of control [13]: 100%
